From patent US11517581B2, “Zika virus protease inhibitors and methods of use thereof” (priority 2017, dated 2022)
≈ marks a conversion by molar mass, not a printed value.

Legend:
[1] = test system: ZIKV; conditions: recently reported; cited from earlier work
[2] = molecular target: ZIKV NS2B-NS3 protease (Zika virus, UniProt A0A024B7W1, DEL1468-1502); assay type: biochemical; conditions: 10 μM substrate; for Effect of increasing drug concentrations on protease activity: 5 nM protease
[3] = test system: ZIKV; conditions: literature; cited from earlier work
[4] = oral and parenteral; cited from earlier work
[5] = test system: ZIKV NS2B-NS3 protease (recombinant fusion, ZIKV-NS2B residues 49-95 and ZIKV-NS3 residues 1-170); assay: Fluorescence-based protease inhibition assay; assay type: biochemical, Zika virus; conditions: 10 μM substrate, 5 nM protease
Text: The recombinant ZIKV NS2B-NS3 protease was produced as previously described with some modifications (Lei et al., 2016). Briefly, coding regions of the ZIKV-NS2B (residues 49-95) and ZIKV-NS3 (residues 1-170) genes were fused and cloned into the pET-28b(+) expression vector (Novagen, Merck & Co., New Jersey, USA). The plasmid was transformed into Escherichia coli strain BL21 (DE3) and overexpressed in 2×YT medium. When the OD600 of the culture reached 0.8, overexpression of the ZIKV NS2B-NS3 protease gene was induced for overnight by addition of 0.5 mM IPTG at 20° C. […] The purified protein was detected by Western blot using anti-His-tag antibodies. Concentration of protein was determined by Bradford protein assay kit (Bio-Rad Laboratories, California, USA) using bovine serum albumin as standard.
The recombinant ZIKV NS2B-NS3 protease was produced as previously described with some modifications (Lei et al., 2016). To detect ZIKV NS2B-NS3 protease activity, a fluorescence-based enzymatic assay was conducted in 96-well black micro-plates (Greiner Bio-One, Kremsmünster, Germany). […] The fluorescence signal from the released AMC was measured at 460 nm with excitation at 360 nm, using a VICTOR™ X3 multilabel plate reader (Perkin Elmer, Massachusetts, USA). […] After 10 min, the fluorescence intensity was measured. […]

[6] = Cell viability (MTT) assay in Huh-7 cells; assay type: cell-based; conditions: human
Procedure: (§1) Briefly, Vero or Huh-7 cells (4×10^4 cells/well) were incubated with different concentrations of individual drug for 24 h, followed by the addition of 10 μl/well of 5 mg/ml MTT substrate. The monolayers were incubated as above for 4 h (away from light). Finally, 100 μl of 10% sodium dodecyl sulfate (SDS) with 0.01M HCl was added and further incubated at 37° C. with 5% CO2 overnight. […] Briefly, the drug compounds were diluted with serum-free MEM and added to confluent Vero cells in 96-well culture plates (4×10^4 cells/well) in triplicate for 2 h at 37° C. After incubation, the drug-containing media were removed, and ZIKV (multiplicity of infection, MOI=0.0002) was added together with fresh drug-compound media to each well. Following 1 h of adsorption at 37° C., the virus-compound mixture was removed and the cells were washed twice with MEM to remove unbound virus. Subsequently, media with antiviral compounds were added to the cells for further incubation for 6 days at 37° C. in a 5% CO2 humidified environment. CPE was examined by inverted light microscopy (Chan et al., 2016b). Thereafter, MTT substrate and SDS-HCl were added sequentially as mentioned above. The half maximal inhibitory concentration (IC50) and CC50 were calculated using Sigma plot (SPSS) in an Excel add-in ED50V10.

[7] = test system: ZIKV (Puerto Rico strain PRVABC59); assay: Viral load reduction assay (qRT-PCR) in Vero cells; assay type: cell-based, Zika virus; conditions: culture supernatants, Vero and Huh-7; data not shown
[8] = Cell viability (MTT) assay in Vero cells; assay type: cell-based; conditions: African green monkey
Procedure: as §1

Chain of ZIKV NS2B-NS3 protease (A0A024B7W1 1502-1672, added parts left off, stated change not applied): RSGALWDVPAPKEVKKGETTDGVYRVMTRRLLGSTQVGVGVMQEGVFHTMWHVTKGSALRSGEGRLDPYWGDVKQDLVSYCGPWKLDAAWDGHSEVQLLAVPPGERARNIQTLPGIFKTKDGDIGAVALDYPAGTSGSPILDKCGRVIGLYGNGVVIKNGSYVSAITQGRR

Compound: OC(c1cc(C(F)(F)F)nc2c(C(F)(F)F)cccc12)C1CCCCN1 (centres unmarked) [Mefloquine]
- In vitro anti-ZIKV effects [1]: in vitro anti-ZIKV effects

Compound: Octreotide acetate
- Effect of increasing drug concentrations on protease activity [2]: dose-dependent reduction in protease activity

Compound: CC(C)OC(=O)[C@H](C)N[P@](=O)(OC[C@H]1O[C@@H](n2ccc(=O)[nH]c2=O)[C@](C)(F)[C@@H]1O)Oc1ccccc1 [Sofosbuvir]
- In vitro anti-ZIKV effects [1]: in vitro anti-ZIKV effects
- Efficacy in animal models [3]: effective in animal models

Compound: CCN(CC)CCCC(C)Nc1ccnc2cc(Cl)ccc12 (centres unmarked) [Chloroquine]
- In vitro anti-ZIKV effects [1]: in vitro anti-ZIKV effects

Compound: CCCCCCCCCC(=O)N[C@@H](Cc1c[nH]c2ccccc12)C(=O)N[C@H](CC(N)=O)C(=O)N[C@@H](CC(=O)O)C(=O)N[C@@H]1C(=O)NCC(=O)N[C@@H](CCCN)C(=O)N[C@@H](CC(=O)O)C(=O)N[C@H](C)C(=O)N[C@@H](CC(=O)O)C(=O)NCC(=O)N[C@H](CO)C(=O)N[C@@H]([C@H](C)CC(=O)O)C(=O)N[C@@H](CC(=O)c2ccccc2N)C(=O)O[C@@H]1C [Daptomycin]
- In vitro anti-ZIKV effects [1]: in vitro anti-ZIKV effects

Compound: N=C(N)NCCC[C@H](NC(=O)[C@@H]1CCCN1C(=O)[C@@H]1CSSCCC(=O)N[C@@H](Cc2ccc(O)cc2)C(=O)N[C@@H](Cc2ccccc2)C(=O)N[C@@H](CCC(N)=O)C(=O)N[C@@H](CC(N)=O)C(=O)N1)C(=O)NCC(N)=O [Desmopressin acetate]
- Effect of increasing drug concentrations on protease activity [2]: dose-dependent reduction in protease activity

Compound: O=C(Nc1ccc([N+](=O)[O-])cc1Cl)c1cc(Cl)ccc1O [niclosamide]
- Solubility [4]: insoluble

Compound: Aprotinin [listing 1 of 2 here]
- IC50 (vs protease activity) ([2]; 5 nM ZIKV NS2B-NS3 protease, positive control): 13.6 ± 1.1 KIU/ml

Compound: CC[C@H]1OC(=O)[C@H](C)[C@@H](O[C@H]2C[C@@](C)(OC)[C@@H](O)[C@H](C)O2)[C@H](C)[C@@H](O[C@@H]2O[C@H](C)C[C@H](N(C)C)[C@H]2O)[C@](C)(O)C[C@@H](C)CN(C)[C@H](C)[C@@H](O)[C@]1(C)O [Azithromycin]
- In vitro anti-ZIKV effects [1]: in vitro anti-ZIKV effects

Compound: Aprotinin [listing 2 of 2 here]
- Reduction in protease activity with increasing concentrations [5]: blocked the protease cleavage activity

Compound: O=C(Nc1ccc([N+](=O)[O-])cc1Cl)c1cc(Cl)ccc1O [Niclosamide]
- In vitro anti-ZIKV effects [1]: in vitro anti-ZIKV effects

Compound: CC[C@H](C)[C@H]1O[C@]2(CC[C@@H]1C)C[C@@H]1C[C@@H](C/C=C(\C)[C@@H](O[C@H]3C[C@H](OC)[C@@H](O[C@H]4C[C@H](OC)[C@@H](O)[C@H](C)O4)[C@H](C)O3)[C@@H](C)/C=C/C=C3\CO[C@@H]4[C@H](O)C(C)=C[C@@H](C(=O)O1)[C@]34O)O2 [Ivermectin]
- In vitro anti-ZIKV effects [1]: in vitro anti-ZIKV effects

Compound: CO[C@H]1/C=C/O[C@@]2(C)Oc3c(C)c(O)c4c(O)c(c(/C=N/N5CCN(C)CC5)c(O)c4c3C2=O)NC(=O)/C(C)=C\C=C\[C@H](C)[C@H](O)[C@@H](C)[C@@H](O)[C@@H](C)[C@H](OC(C)=O)[C@@H]1C [Rifampicin]
- Effect of increasing drug concentrations on protease activity [2]: dose-dependent reduction in protease activity
- CC50 at 24 h [6]: 400 µg/mL (≈ 486 µM)
- Dose-dependent reduction in virus titer observed [7]: not
- CC50 at 24 h [8]: 400 µg/mL (≈ 486 µM)
